From patent US5952322A, “Method of reducing tissue damage associated with non-cardiac ischemia using glycogen phosphorylase inhibitors” (Pfizer Inc., priority 1997, dated 1999)
Like-named read-outs stand apart in the source and are kept apart here.

Columns and labels:
[1] = target: T1, human muscle glycogen phosphorylase a (HMGPa) (Homo sapiens, UniProt P11217); assay: GPa activity assay, reverse direction (inorganic phosphate release from glucose-1-phosphate), human muscle isoform; assay type: biochemical
T1 construct: made in house; host or cells: E. coli strain XL-1 Blue (plasmid pKK233-2)
T1 sequence (P11217 2-842 limits assumed): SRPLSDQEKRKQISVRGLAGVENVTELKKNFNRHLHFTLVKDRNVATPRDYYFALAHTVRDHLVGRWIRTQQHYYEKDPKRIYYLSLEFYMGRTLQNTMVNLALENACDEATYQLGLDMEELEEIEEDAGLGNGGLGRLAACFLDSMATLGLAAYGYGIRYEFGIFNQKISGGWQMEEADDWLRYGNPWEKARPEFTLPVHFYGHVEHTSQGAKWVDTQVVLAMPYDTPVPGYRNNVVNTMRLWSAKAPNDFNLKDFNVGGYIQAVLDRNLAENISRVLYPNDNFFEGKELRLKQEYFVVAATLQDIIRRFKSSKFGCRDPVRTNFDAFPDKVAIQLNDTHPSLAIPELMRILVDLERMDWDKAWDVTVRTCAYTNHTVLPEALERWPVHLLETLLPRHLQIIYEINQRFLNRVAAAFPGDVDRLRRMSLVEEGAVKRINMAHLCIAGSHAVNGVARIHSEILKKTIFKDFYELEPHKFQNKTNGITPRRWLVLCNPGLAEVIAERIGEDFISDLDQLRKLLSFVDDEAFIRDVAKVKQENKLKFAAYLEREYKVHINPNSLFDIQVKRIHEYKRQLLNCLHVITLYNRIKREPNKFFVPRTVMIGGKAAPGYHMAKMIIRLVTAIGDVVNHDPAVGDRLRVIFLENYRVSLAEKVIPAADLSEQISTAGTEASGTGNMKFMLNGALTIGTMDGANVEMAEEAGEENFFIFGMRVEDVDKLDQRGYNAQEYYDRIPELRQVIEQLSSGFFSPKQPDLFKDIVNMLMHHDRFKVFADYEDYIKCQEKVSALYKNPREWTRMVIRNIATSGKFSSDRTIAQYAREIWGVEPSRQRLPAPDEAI
Experimental: (§1) All reactions are run in triplicate in 96-well microtiter plates and the change in absorbance due to formation of the reaction product is measured at the wavelength specified below in a MCC/340 MKII Elisa Reader (Lab Systems, Finland), connected to a Titertech Microplate Stacker (ICN Biomedical Co, Huntsville, Ala.).
(§2) Buffer B is at pH 7.2 and contains 50 mM HEPES, 100 mM KCl, 2.5 mM EGTA, 2.5 mM MgCl2 and 0.5 mM dithiothreitol. […] After a 20 minute incubation at room temperature, the absorbance is measured at 620 nm.

[2] = target: T2, human liver glycogen phosphorylase a (HLGPa) (Homo sapiens, UniProt P06737); assay: GPa activity assay, reverse direction (inorganic phosphate release from glucose-1-phosphate), human liver isoform; assay type: biochemical
T2 construct: made in house; host or cells: E. coli XL-1 Blue (pKK233-2) or Sf9 insect cells (pBlueBac III baculovirus)
T2 sequence (P06737 2-847 limits assumed): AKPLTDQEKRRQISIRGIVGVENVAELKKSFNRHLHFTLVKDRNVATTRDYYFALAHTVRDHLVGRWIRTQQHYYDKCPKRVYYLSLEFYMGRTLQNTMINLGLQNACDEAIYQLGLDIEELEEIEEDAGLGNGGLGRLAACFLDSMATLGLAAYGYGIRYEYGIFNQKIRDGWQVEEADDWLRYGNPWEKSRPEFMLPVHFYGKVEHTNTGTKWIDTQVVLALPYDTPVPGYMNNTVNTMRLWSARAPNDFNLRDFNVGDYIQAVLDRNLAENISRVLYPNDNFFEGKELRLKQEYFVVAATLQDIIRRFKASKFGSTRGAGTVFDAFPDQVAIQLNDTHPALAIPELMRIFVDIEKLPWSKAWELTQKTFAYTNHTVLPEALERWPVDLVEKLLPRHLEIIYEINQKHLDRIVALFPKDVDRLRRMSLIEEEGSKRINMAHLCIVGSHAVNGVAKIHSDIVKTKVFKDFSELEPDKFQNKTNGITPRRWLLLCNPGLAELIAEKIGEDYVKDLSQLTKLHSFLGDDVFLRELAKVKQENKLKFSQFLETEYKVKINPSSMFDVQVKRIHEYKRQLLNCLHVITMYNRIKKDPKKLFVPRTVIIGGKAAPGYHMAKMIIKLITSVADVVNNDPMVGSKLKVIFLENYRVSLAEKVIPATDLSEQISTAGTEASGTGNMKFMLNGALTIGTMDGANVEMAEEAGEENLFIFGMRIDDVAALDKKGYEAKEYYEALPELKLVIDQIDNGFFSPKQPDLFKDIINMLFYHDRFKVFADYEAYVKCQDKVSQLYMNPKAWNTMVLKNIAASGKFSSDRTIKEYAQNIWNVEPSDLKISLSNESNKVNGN
Experimental: as §1, §2

rabbit isolated heart [3] = assay: Cardioprotection (reduction of infarcted myocardium) in isolated, retrogradely perfused (Langendorff) rabbit heart after regional ischemia and reperfusion; set-up: species or system Male New Zealand White rabbits; settings: for Infarct Area/Area-at-Risk (%IA/AAR): standard error in own column, control 63.9
From the text: Cardioprotection, as indicated by a reduction in infarcted myocardium, can be induced pharmacologically using adenosine receptor agonists in isolated, retrogradely perfused rabbit hearts as an in vitro model of myocardial ischemic preconditioning (Liu et al., Cardiovasc. Res., 28:1057-1061, 1994). […] The exact methodology is described below.
The protocol used for these experiments closely follows that described by Liu et al., Cardiovasc. Res., 28:1057-1061, 1994. Male New Zealand White rabbits (3-4 kg) are anesthetized with sodium pentobarbital (30 mg/kg, i.v.). After deep anesthesia is achieved (determined by the absence of an ocular blink reflex) the animal is intubated and ventilated with 100% O2 using a positive pressure ventilator. A left thoracotomy is performed, the heart exposed, and a snare (2-0 silk) is placed loosely around a branch of the left anterior descending coronary artery, approximately 2/3 of the distance towards the apex of the heart. The heart is removed from the chest and rapidly (<30 sec) mounted on a Langendorff apparatus. The heart is retrogradely perfused via the aorta in a non-recirculating manner with a modified Krebs solution (NaCl 118.5 mM, KCl 4.7 mM, Mg SO4 1.2 mM, KH2 PO4 1.2 mM, NaHCO3 24.8 mM, CaCl2 2.5 mM, and glucose 10 mM), at a constant pressure of 80 mmHg and a temperature of 37° C. […] Heart rate and left ventricular pressures are determined via a latex balloon which is inserted in the left ventricle and connected by stainless steel tubing to a pressure transducer. […] Perfusate flow rates are routinely determined throughout the experimental period. […]
At the end of the 120 min reperfusion period, the coronary artery snare is tightened, and a 0.5% suspension of fluorescent zinc cadmium sulfate particles ([…]) is perfused through the heart; this stains all of the myocardium, except that area at risk for infarct development (area-at-risk). […] The infarcted area (no stain) and the area-at-risk (no fluorescent particles) are calculated for each slice of left ventricle using a precalibrated image analyzer. […]

rabbit isolated heart [4] = settings: Liu et al., Cardiovasc. Res., 28:1057-1061, 1994; cited from earlier work
[5] = reverse direction assay, HLGPa, read-out: HLGPa IC50

Compound | IC50 [1] | IC50 [2, 5] | other results
CN(CCO)C(=O)[C@H](O)[C@H](Cc1ccccc1)NC(=O)c1cc2cc(Cl)ccc2[nH]1 [5-Chloro-1H-indole-2-carboxylic acid ((1S)-{(R)-hydroxy-[(2-hydroxy-ethyl)methyl-carbamoyl]-methyl}-2-phenyl-ethyl)-amide] | 20 nM | 152 nM | –
CN(C)C(=O)[C@H](O)[C@H](Cc1ccccc1)NC(=O)c1cc2cc(Cl)ccc2[nH]1 [5-Chloro-1H-indole-2-carboxylic acid [(1S)-((R)-hydroxy-dimethylcarbamoyl-methyl)-2-phenyl-ethyl]-amide] | 155 nM | – | IC50 [2]: 108 nM
CON(C)C(=O)[C@H](O)[C@H](Cc1ccccc1)NC(=O)c1cc2cc(Cl)ccc2[nH]1 [5-Chloro-1H-indole-2-carboxylic acid {(1S)-[(R)-hydroxy-(methoxy-methylcarbamoyl)-methyl]-2-phenyl-ethyl}-amide] | 110 nM | 51 nM | –
O=C(N[C@@H](Cc1ccccc1)C(=O)N1CC(O)C1)c1cc2cc(Cl)ccc2[nH]1 [5-chloro-1H-indole-2-carboxylic acid [(1S)-benzyl-2-(3-hydroxy-azetidin-1-yl)-2-oxo-ethyl]-amide] | – | – | cardioprotection relative to the control group (rabbit isolated heart [3]; 5 μM): significant cardioprotection; Infarct Area/Area-at-Risk (%IA/AAR) (rabbit isolated heart [3]; 5 μM, perfused from 30 min before 30 min regional ischemia through 120 min reperfusion, n=6): 31.4%
Nc1ccc(CCNc2ncnc3c2ncn3[C@@H]2O[C@H](CO)[C@@H](O)[C@H]2O)cc1 [APNEA, N^6-[2-(4-aminophenyl)ethyl]adenosine, reference compound] | – | – | pharmacologically induced cardioprotection in the rabbit isolated heart (rabbit isolated heart [4]): shown to pharmacologically induce cardioprotection; Infarct Area/Area-at-Risk (%IA/AAR) (rabbit isolated heart [3]; 500 nM, perfused 5 min, then 10 min drug-free, before 30 min ischemia and 120 min reperfusion, n=9): 19.0%
